Measurements published in patent US20030190289A1, “Formulations containing a glucocorticoid drug for the treatment of bronchopulmonary diseases” (priority 2000, published 2003).

What was measured:
[1] = studies in the animals; Clissold et al. 1984, Edbäcker et al. 1987; cited from earlier work
[2] = Chemical and physical stability in solution; format: physicochemical; conditions: solution formulations
Protocol: In WO 00/30608 published on Jun.
In the same application, further 22R-BUD solution compositions in HFA 134a or 227 are described whose relevant respirable dose and the respirable fraction have been determined. In these compositions, the concentration of the active ingredient is comprised between 0.06% and 0.14% w/v equivalent to single doses of w 60, 63 and 70 μg, respectively. However, although said formulations give rise to good performances in term of respirable fraction due to the low amount of ethanol, the polarity of the whole solvent system constituted of 7-8% w/w of ethanol and 0.9% w/w of isopropyl myristate or PEG 400 is too low, leading to physical stability problem, i.e. partial precipitation of the active ingredient, after storage under stress conditions.

[3] = Solubility in ethanol and ethanol/HFA mixtures; format: physicochemical; conditions: in ethanol and mixtures containing ethanol and HFA134a or ethanol and HFA227
[4] = Clissold et al. 1984, Edbäcker et al. 1987; cited from earlier work
[5] = Pharmacokinetic and metabolic profile / systemic exposure of the epimers; format: in vivo; conditions: studies carried out by the applicant
[6] = cited from earlier work; for Rank order of topical activity: comparison between rac-BUD and its two epimers, Clissold et al.
[7] = HFA propellant containing ethanol and optionally a low volatility component; inhalers with internal surface of stainless steel, anodized aluminum or epoxy phenol resin lining; WO 00/30608; cited from earlier work

| Compound | Potency relative to the corresponding (22S) epimer [1] | Chemical degradation tendency versus corresponding epimer [2] | Solubility versus corresponding epimer [3] | Pharmacokinetic and metabolic profile versus (22S) epimer [4] | Systemic exposure versus corresponding epimer [5] | Rank order of topical activity [6] | Stability in solution [7] | Ratio of topical to systemic activity ([6]; compared with other corticosteroids) |
| --- | --- | --- | --- | --- | --- | --- | --- | --- |
| CCC[C@@H]1O[C@@H]2C[C@H]3[C@@H]4CCC5=CC(=O)C=C[C@]5(C)[C@H]4[C@@H](O)C[C@]3(C)[C@]2(C(=O)CO)O1 [Composition 22R-BUD, (22R)-budesonide] | 2 to 3 times | higher tendency to exhibit chemical degradation than its corresponding epimer | significantly less soluble than its corresponding epimer | different pharmacokinetic and metabolic profile | different from that of its corresponding epimer | 22R >rac-BUD >22S | stable in solution |  |
| CCCC1OC2CC3C4CCC5=CC(=O)C=CC5(C)C4C(O)CC3(C)C2(C(=O)CO)O1 (stereo not shown) [Composition 22S] |  |  |  |  |  | 22R >rac-BUD >22S |  |  |
| CCCC1O[C@@H]2C[C@H]3[C@@H]4CCC5=CC(=O)C=C[C@]5(C)[C@H]4[C@@H](O)C[C@]3(C)[C@]2(C(=O)CO)O1 (mixture of isomers) [rac-BUD, Budesonide] |  |  |  |  |  | 22R >rac-BUD >22S |  | high ratio of topical to systemic activity |
